Patent US11345702B1 (Myoforte Therapeutics, Inc., priority 2020, dated 2022)
pIC50: −log10 of the molar value. In brackets after ≈: the same amount, converted by molar mass. Where two headings read alike, the source gives them in different places.

Experiments:
Solubility at pH 7.4 = assay type: physicochemical
[1] = Liver microsome stability assay (MLM); assay type: in vitro ADME; conditions: mouse liver microsomes
Description: (§1) A microsomal mixture (microsomes and Kphos buffer) was prepared at a concentration of 1.428 mg/mL in 2 mL tubes. To this microsomal mixture 1.6 μL (1 mM) of test compound and positive control were spiked; from this mixture, 70 μL was transferred to 96 well plate and pre-incubated at 37° C. for 5 min. After pre-incubation, the zero minute time point reaction was stopped using 100 μL of ice-cold acetonitrile containing internal standard and […] (3.33 mM in Kphos buffer) was added. The 45 minute time point reaction was initiated by addition of 30 μL of NADPH (3.33 mM in Kphos buffer) and incubated at 37° C. for 15 and 45 min. Reactions without NADPH and buffer controls (minus NADPH) at 0, 15, and 45 minutes were also incubated to rule out non-NADPH metabolism or chemical instability in the incubation buffer. Incubation reactions were stopped with 100 μL of ice-cold acetonitrile containing internal standard. The plates were centrifuged at 4000 RPM for 15 min and 100 μL aliquots were submitted for analysis by LC-MS/MS. (Verapamil in human liver microsomes (HLM) and rat liver microsomes (RLM) was used as positive controls. Imipramine in mouse liver microsomes (MLM) was used as a positive control.) Samples were monitored for parent compound disappearance in MRM mode (multiple reaction monitoring) using LC-MS/MS. The peak area ratios of analyte versus internal standard were used to calculate the % remaining at the end of 45 minutes in the presence of NADPH.

15-PGDH/HPGD = 15-PGDH/HPGD (Homo sapiens (Human), UniProt P15428); test: hPGDH inhibitor screening biochemical assay
15-PGDH/HPGD, sequence (P15428 whole entry): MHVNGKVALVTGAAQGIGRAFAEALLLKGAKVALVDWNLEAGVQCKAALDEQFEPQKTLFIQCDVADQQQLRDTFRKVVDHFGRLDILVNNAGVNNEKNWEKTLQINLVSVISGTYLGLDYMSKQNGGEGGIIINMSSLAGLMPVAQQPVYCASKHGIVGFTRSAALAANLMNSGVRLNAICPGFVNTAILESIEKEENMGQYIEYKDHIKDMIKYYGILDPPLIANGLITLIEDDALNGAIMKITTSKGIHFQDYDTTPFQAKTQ
In short: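 Ten-point dose-response inhibition of 15-PGDH measured by fluorescence (340/485 nm) after 10 min at room temperature with PGE2 (15 μM) and NAD+ (0.25 mM), following 10 min enzyme (10 nM)–compound pre-incubation at 37 °C. Buffer: 50 mM Tris-HCl pH 7.5, 0.01% Tween 20. Percent inhibition relative to 1% DMSO; four-parameter IC50.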

[2] = Liver microsome stability assay (RLM); assay type: in vitro ADME; conditions: rat liver microsomes
Description: as §1

[3] = aqueous buffer, pH 7.4, 6-5 ring core, read-out: Solubility at pH 7.4
[4] = pH 7.4, aqueous buffer, read-out: Solubility: Solubility at pH 7.4
[5] = aqueous buffer, pH 7.4, phenyl core, read-out: Solubility at pH 7.4

Row | solubility (Solubility at pH 7.4; [3]) | pIC50 (15-PGDH/HPGD; read-out: hPGDH: Average IC50) | RLM + NADPH (% remaining at 45 min) [2] | SMILES | further results
1 | 140 µM (≈ 49.6 µg/mL) |  |  | COc1ccc(-n2cnc3cc(C(=O)N4CCC(F)CC4)cnc32)cc1 [drawing 192] | 
2 |  | > 7.00 |  | C[C@@H]1C[C@H](C)CN(C(=O)c2cnc3c(ccn3-c3ccc(C(N)=O)cc3)c2)C1 [MF-DH-395, 4-(5-((3R,5S)-3,5-dimethylpiperidine-1-carbonyl)-1H-pyrrolo[2,3-b]pyridin-1-yl)benzamide] | solubility (Solubility at pH 7.4; [4]): 80 µM (≈ 30.1 µg/mL); MLM + NADPH (% remaining at 45 min) [1]: 8%
3 | 150 µM (≈ 51.1 µg/mL) |  |  | O=C(c1cnc2c(c1)ncn2-c1cccc(Cl)c1)N1CCCCC1 [drawing 219] | 
4 |  | > 7.00 |  | Cc1c(C(=O)N2CCC(F)CC2)cnc2c1ccn2-c1ccc(C(N)=O)cc1 [MF-DH-380, 4-(5-(4-fluoropiperidine-1-carbonyl)-4-methyl-1H-pyrrolo[2,3-b]pyridin-1-yl)benzamide] | solubility (Solubility at pH 7.4; [4]): 75 µM (≈ 28.5 µg/mL); MLM + NADPH (% remaining at 45 min) [1]: 89%
5 |  | > 7.00 |  | O=C(c1cnc2c(ccn2-c2cncc(-c3noc(=O)[nH]3)c2)c1)N1CCC(F)(F)CC1 [MF-DH-454, 3-(5-(5-(4,4-difluoropiperidine-1-carbonyl)-1H-pyrrolo[2,3-b]pyridin-1-yl)pyridin-3-yl)-1,2,4-oxadiazol-5(4H)-one] | solubility (Solubility at pH 7.4; [4]): > 100 µM; MLM + NADPH (% remaining at 45 min) [1]: 92%
6 | 68 µM (≈ 23.2 µg/mL) |  |  | O=C(c1ccc2c(c1)nnn2-c1cccc(Cl)c1)N1CCCCC1 [drawing 221] | 
7 |  |  |  | COc1ccccc1C(=O)N(C)c1ccc(C(=O)N2CCCCC2)cc1 [drawing 229] | solubility (Solubility at pH 7.4; [5]): 160 µM (≈ 56.4 µg/mL)
8 |  | 6.00 to 7.00 | 64% | O=C(c1cnc2c(c1)ncn2-c1ccc(F)c(F)c1)N1CCC(F)CC1 [MF-DH-216] | 
9 | 33 µM (≈ 12.1 µg/mL) |  |  | O=C(c1ccc2c(c1)ncn2-c1cccc(Cl)c1)N1CC2CCCC2C1 (stereo not drawn) [drawing 215] | 
10 |  | > 7.00 | 51% | COc1ccc(-n2nnc3cc(C(=O)N4CCC(F)CC4)ccc32)cc1 [MF-DH-242, (4-fluoropiperidin-1-yl)(1-(4-methoxyphenyl)-1H-benzo[d][1,2,3]triazol-5-yl)methanone] | 
11 | < 5 µM |  |  | O=C(c1ccc2c(ccn2-c2cccc(Cl)c2)c1)N1CCCCC1 [drawing 225] | 
12 |  | > 7.00 |  | O=C(Nc1cncc(-n2ccc3cc(C(=O)N4CCC(F)(F)CC4)cnc32)c1)c1ccno1 [MF-DH-458] | solubility (Solubility at pH 7.4; [4]): 62 µM (≈ 28.1 µg/mL); MLM + NADPH (% remaining at 45 min) [1]: 68%
13 |  | > 7.00 |  | O=C(O)c1ccc(-n2ccc3cc(C(=O)N4CCC(F)(F)CC4)cnc32)cc1 [MF-DH-424, 4-(5-(4,4-difluoropiperidine-1-carbonyl)-1H-pyrrolo[2,3-b]pyridin-1-yl)benzoic acid] | solubility (Solubility at pH 7.4; [4]): 156 µM (≈ 60.1 µg/mL); MLM + NADPH (% remaining at 45 min) [1]: 96%
14 |  | > 7.00 | 45% | O=C(c1cnc2c(c1)ncn2-c1ccc(F)cc1)N1CCCCC1 [MF-DH-215] | 
15 | 120 µM (≈ 40.8 µg/mL) |  |  | O=C(c1ccc2c(c1)ncn2-c1cccc(Cl)c1)N1CCCCC1 [drawing 211] | 
16 |  | > 7.00 | 23% | COc1ccc(-n2ccc3cc(C(=O)N4CCC(F)CC4)ccc32)cc1 [MF-DH-189] | 
17 |  | > 7.00 | 0% | CCC(CC)n1cnc2cc(C(=O)N3CCCCC3)ccc21 [MF-DH-237] | 
18 |  | 6.00 to 7.00 | 39% | O=C(c1cnc2c(c1)ncn2-c1cccc(OC(F)F)c1)N1CCCCC1 [MF-DH-229] | 
19 | 6.9 µM (≈ 2.34 µg/mL) |  |  | O=C(c1ccc2c(cnn2-c2cccc(Cl)c2)c1)N1CCCCC1 [drawing 224] | 
20 |  | 6.00 to 7.00 | 60% | O=C(c1cnc2c(c1)ncn2-c1ccc(F)cc1)N1CCC(F)CC1 [MF-DH-214] | 
21 | < 5 µM |  |  | O=C(c1cnc2c(-c3cccc(Cl)c3)cnn2c1)N1CCCCC1 [drawing 220] | 
22 |  | > 7.00 | 44% | COc1ccc(-n2ccc3c(C)c(C(=O)N4CCCCC4)cnc32)cc1 [MF-DH-287] | 
23 |  | > 7.00 | 29% | O=C(c1cnc2c(ccn2-c2ccc3c(c2)OC(F)(F)O3)c1)N1CCCCC1 [MF-DH-249] | 

Row | solubility (Solubility at pH 7.4; [3]) | pIC50 (15-PGDH/HPGD; read-out: hPGDH: Average IC50) | RLM + NADPH (% remaining at 45 min) [2] | SMILES | further results
24 |  | 6.00 to 7.00 | 48% | O=C(c1cnc2c(c1)ncn2-c1cccc(OC(F)(F)F)c1)N1CCCCC1 [MF-DH-227] | 
25 | 140 µM (≈ 52.1 µg/mL) |  |  | COc1ccc(-n2cnc3cc(C(=O)N4CCC(F)(F)CC4)cnc32)cc1 [drawing 191] | 
26 |  | > 7.00 | 16% | COc1ccc(-n2ncc3cc(C(=O)N4CCCCC4)ccc32)cc1 [MF-DH-245] | 
27 |  |  |  | O=C(c1ccc(COc2ccccc2Cl)cc1)N1CCCCC1 [drawing 230] | solubility (Solubility at pH 7.4; [5]): 38 µM (≈ 12.5 µg/mL)
28 | 45 µM (≈ 16.9 µg/mL) |  |  | COc1ccc(-n2c(C3CC3)nc3cc(C(=O)N4CCCCC4)ccc32)cc1 [drawing 218] | 
29 |  | > 7.00 | 26% | O=C(c1cnc2c(c1)ncn2-c1ccc(OC(F)(F)F)cc1)N1CCCCC1 [MF-DH-219] | 
30 | 160 µM (≈ 56.5 µg/mL) |  |  | COc1ccc(-n2cnc3cc(C(=O)N4CCC(F)CC4)ccc32)cc1 [drawing 222] | 
31 | 160 µM (≈ 53.8 µg/mL) |  |  | COc1ccc(-n2cnc3cc(C(=O)N4CCCCC4)cnc32)cc1 [drawing 193] | 
32 |  | > 7.00 | 34% | COc1ccc(-n2nnc3cc(C(=O)N4CCCCC4)ccc32)cc1 [MF-DH-243, (1-(4-methoxyphenyl)-1H-benzo[d][1,2,3]triazol-5-yl)(piperidin-1-yl)methanone] | 
33 |  | > 7.00 | 29% | COc1ccc(-n2cc(C)c3cc(C(=O)N4CCC(F)CC4)ccc32)cc1 [MF-DH-190, (4-fluoropiperidin-1-yl)(1-(4-methoxyphenyl)-3-methyl-1H-indol-5-yl)methanone] | 
34 |  | > 7.00 | 78% | COc1ccc(-n2c(C)nc3cc(C(=O)N4CCCCC4)cnc32)cc1 [MF-DH-205] | 
35 |  |  |  | COc1ccccc1NC(=O)c1ccc(C(=O)N2CCCCC2)cc1 [drawing 232] | solubility (Solubility at pH 7.4; [5]): 88 µM (≈ 29.8 µg/mL)
36 | 150 µM (≈ 50.3 µg/mL) |  |  | COc1ccc(-n2cnc3cc(C(=O)N4CCCCC4)ccc32)cc1 [drawing 223] | 
37 |  |  |  | O=C(c1ccc(COc2ccccc2Br)cc1)N1CCCCC1 [drawing 233] | solubility (Solubility at pH 7.4; [5]): 6.3 µM (≈ 2.36 µg/mL)
38 | 21 µM (≈ 7.14 µg/mL) |  |  | O=C(c1cnc2c(ccn2-c2cccc(Cl)c2)c1)N1CCCCC1 [drawing 216] | pIC50 (15-PGDH/HPGD; PGDH inhibitors with a 6-5 ring core, read-out: hPGDH: IC50): 8.82
39 |  | 6.00 to 7.00 | 22% | COc1ccc(-n2nc(Cl)c3cc(C(=O)N4CCCCC4)ccc32)cc1 [MF-DH-247] | 
40 |  | 6.00 to 7.00 | 69% | O=C(c1cnc2c(c1)ncn2-c1cccc(OC(F)F)c1)N1CCC(F)CC1 [MF-DH-228] | 
41 |  | 6.00 to 7.00 | 34% | O=C(c1cnc2c(c1)ncn2-c1ccc(OC(F)(F)F)cc1)N1CCC(F)CC1 [MF-DH-218] | 
42 |  | > 7.00 | 40% | CCOc1ccc(-n2cnc3cc(C(=O)N4CCCCC4)cnc32)cc1 [MF-DH-225] | 
43 |  |  |  | COc1ccccc1C(=O)Nc1ccc(C(=O)N2CCCCC2)cc1 [drawing 231] | solubility (Solubility at pH 7.4; [5]): 29 µM (≈ 9.81 µg/mL)
44 | 16 µM (≈ 5.63 µg/mL) |  |  | O=C(c1ccc2c(c1)ncn2-c1cccc(Cl)c1)N1CC2(CCC2)C1 [drawing 212] | 
45 |  | > 7.00 | 17% | COc1ccc(-n2c(C)nc3cc(C(=O)N4CCC(F)CC4)ccc32)cc1 [MF-DH-187] | 
46 |  | > 7.00 | 9% | COc1ccc(-n2c(C)nc3cc(C(=O)N4CCCCC4)ccc32)cc1 [MF-DH-206] | 
